Usually IC50 stands for the point on the concentration scale where inhibition reaches its midpoint.

Several values for one entry are separate records, joined by “and”; a condition that tells them apart may be missing. Identical values can stand only once. Entries after “also recorded” stand apart in the source; their conditions may differ.

The values below come from patent US20060252774A1, “Regulation of type 5 adenylyl cyclase for treatment of neurodegenerative and cardiac diseases” (priority 2002, published 2006).

For experiment [1], the system named is conscious WT and AC5KO mice. The experiment is described as follows: Physiological studies in conscious mice: HR (ECG) and arterial pressure. The format is in vivo, mouse. The conditions noted are these: for change of HR: 0.75 mg/kg i.v.; for increase in HR: 1 μg/g i.v. An excerpt:
FIG. 19: Muscarinic regulation of cardiac function in vivo. A, Effects of atropine. […] B, Effect of ACh. […] C, Baroreflex regulation of HR.
In AC5KO and WT mice, four ECG wires (New England Electric Wire Corporation, Lisbon, N.H., USA) were placed subcutaneously, a silicone elastomer tubing (Cardiovascular Instrument Corp., Wakefield, Mass., USA) was inserted into the right external jugular vein and a 1.4 F micromanometer catheter (Millar Instruments, Inc., Houston, Tex., USA) was inserted into the lower abdominal aorta via the femoral artery as described previously with some modifications. The ECG wires, the silicone elastomer tubing and the micromanometer catheter were tunneled subcutaneously to the back, externalized, and secured in a plastic cap. On the day of the study, each mouse was placed in the mouse holder, the jugular venous catheter was accessed and connected to a microliter syringe (Hamilton Co., Reno, Nev., USA), the 1.4 F micromanometer catheter was connected to a recorder (Dash 4u; Astro-Med, Inc., West Warwick, R.I., USA) and the ECG wires were connected to an ECG amplifier (Gould Inc., Cleveland, Ohio, USA). All experiments were recorded with animals in the conscious state. After at least 6 hours recovery from the implantation of the catheter, when a stable HR was achieved, the baseline ECG and arterial pressure (AP) were recorded for 5 min. Ach (0.05 μg/g) was then administered intravenously (i.v.), and the ECG and AP recording were repeated. A recovery period of 15 min was allowed for the HR and AP to return to baseline before administering the next drug. Baseline HR slowing was examined in response to phenylephrine (0.2 μg/g i.v.).
Electrocardiogram (ECG) wires, a jugular vein catheter for drug infusion, and a femoral artery catheter for arterial pressure monitoring were implanted under anesthesia as described previously. […] Intravenous (i.v.) infusion of ISO (0.04 μg/kg/min i.v. for 5 min) was performed using an infusion pump. To examine the responses to a muscarinic agonist, acetylcholine (ACh) (25 mg/kg i.p.) was co-administered i.p. during the i.v. infusion of ISO (0.04 μg/kg/min). In addition, in conscious mice ACh (0.01 and 0.05 mg/kg), atropine (0.25, 1 and 2 mg/kg), or verapamil (0.75 mg/kg) were administered i.v., and the ECG was recorded. A recovery period of 15 min was allowed for the HR to return to baseline before administering the next drug. To examine HR responses to baroreflex hypertension, phenylephrine (0.2 mg/kg i.v.) was infused, and the ECG and arterial pressure were measured

In experiment [2] the target is T1, AC5 (Canis lupus familiaris, UniProt P30803). The experiment is described as follows: AC catalytic activity inhibition, AC5 isoform. As to conditions: for IC50: 5 mM MgCl2 with Gsalpha/GTPgammaS/forskolin (50 micro M). Details: IC50 for AC5; other: 5 mM MgCl2 with Gsalpha/GTPgammaS/forskolin (50 micro M); other: in the presence of Gsalpha/GTPgammaS/forskolin; other: 10 micro M. The format is biochemical. From the text:
FIG. 11. […] The relative inhibitory activity versus control (% control activity) for various AC isoforms are shown. Data are means±S.D. of quadruplicate determinations.
Classic inhibitors of AC include adenosine analogs or P-site inhibitors, and MDL12330A, a non-nucleic acid inhibitor. However, not much was known about the isoform selectivity of these inhibitors. […] It was previously noted that AC2 was less sensitive to THFA than the other isoforms, giving a selectivity ratio of 1.8 when compared between AC6 and AC2.
Inventors will first determine the selectivity among the AC isoforms (FIG. 12). […] The IC50 values were calculated to be 0.32 micro M for AC5, 11.1 micro M for AC3, 65.3 micro M for AC2. The selectivity ratio of HI30435 was 207 between AC5 and AC2. […] The selectivity ratio was 18 between AC5 and AC2.

The next experiment concerns the target T2, AC3 (Rattus norvegicus, UniProt P21932).
T2 sequence (P21932 1-1144): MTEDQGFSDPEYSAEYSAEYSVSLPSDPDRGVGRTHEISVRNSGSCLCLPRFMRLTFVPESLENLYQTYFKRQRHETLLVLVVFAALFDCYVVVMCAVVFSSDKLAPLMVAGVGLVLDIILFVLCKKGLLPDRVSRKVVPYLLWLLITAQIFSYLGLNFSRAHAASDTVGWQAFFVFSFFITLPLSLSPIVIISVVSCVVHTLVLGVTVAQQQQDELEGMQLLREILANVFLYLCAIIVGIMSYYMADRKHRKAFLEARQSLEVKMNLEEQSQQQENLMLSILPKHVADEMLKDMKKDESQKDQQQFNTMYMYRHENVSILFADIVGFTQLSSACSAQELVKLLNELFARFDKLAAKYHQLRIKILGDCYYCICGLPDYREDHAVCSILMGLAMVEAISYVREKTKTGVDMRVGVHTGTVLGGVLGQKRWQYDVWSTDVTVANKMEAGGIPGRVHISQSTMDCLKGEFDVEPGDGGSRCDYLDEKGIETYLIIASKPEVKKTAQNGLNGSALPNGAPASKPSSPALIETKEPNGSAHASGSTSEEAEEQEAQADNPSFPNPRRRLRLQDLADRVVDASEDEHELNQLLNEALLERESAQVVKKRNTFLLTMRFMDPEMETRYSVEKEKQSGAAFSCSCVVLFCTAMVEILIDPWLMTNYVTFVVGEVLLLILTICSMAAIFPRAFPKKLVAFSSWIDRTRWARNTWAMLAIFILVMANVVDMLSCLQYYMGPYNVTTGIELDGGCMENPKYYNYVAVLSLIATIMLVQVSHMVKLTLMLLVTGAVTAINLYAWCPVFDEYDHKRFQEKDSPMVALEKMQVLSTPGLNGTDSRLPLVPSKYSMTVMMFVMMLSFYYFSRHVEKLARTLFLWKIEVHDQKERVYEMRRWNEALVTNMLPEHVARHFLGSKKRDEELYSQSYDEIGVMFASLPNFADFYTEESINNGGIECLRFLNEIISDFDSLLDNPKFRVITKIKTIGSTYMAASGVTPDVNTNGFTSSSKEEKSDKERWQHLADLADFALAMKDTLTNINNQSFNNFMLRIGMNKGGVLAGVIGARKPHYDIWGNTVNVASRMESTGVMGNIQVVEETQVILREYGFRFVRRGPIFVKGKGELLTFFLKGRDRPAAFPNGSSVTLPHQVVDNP
Kind of experiment: AC catalytic activity inhibition, AC3 isoform. As to conditions: in the presence of Gsalpha/GTPgammaS/forskolin. The experiment is classed as biochemical. An excerpt:
(§1) Classic inhibitors of AC include adenosine analogs or P-site inhibitors, and MDL12330A, a non-nucleic acid inhibitor.
(§2) Inventors will first determine the selectivity among the AC isoforms (FIG. 12).

In a further experiment the target is AC2 (Rattus norvegicus, UniProt P26769). The experiment is described as follows: AC catalytic activity inhibition, AC2 isoform. The format is biochemical. As to conditions: in the presence of Gsalpha/GTPgammaS/forskolin.
Text: as §1, §2

The subject of a further experiment is cardiac AC. The experiment is described as follows: AC assay in heart membrane preparations. The experiment is classed as biochemical, mouse. As to conditions: 10 μM. How it is done:
FIG. 17: Adrenergic, muscarinic, and Ca^2+-mediated regulation of cardiac AC activity. A, AC activity in vitro. The steady state AC activity was determined as the maximal cAMP production over 15 min. Stimulation was performed at the level of the β-AR (ISO), G-protein (GTPγS) and AC catalytic unit with forskolin (Fsk). *P<0.01, n=5. B, Effects of carbachol on AC activity. AC was preactivated by ISO. AC activity was then determined in the absence and presence of carbachol. Carbachol at 10 μmol/L produced its maximal inhibitory effect. *P<0.01, n−5. C, To investigate the inhibition of AC activity by Ca^2+, we examined cAMP production in membranes from the hearts of WT and AC5KO at increasing Ca^2+ concentrations in the presence of ISO. ISO-stimulated AC activity was inhibited more in WT than in AC5KO. […].
Hearts were dissected from the mice and membrane preparations were prepared as described previously. Protein concentration was measured by the method of Bradford using bovine serum albumin as a standard. AC activity was measured as described previously. AC activity was linear within the incubation time up to 30 min. In order to harvest hearts for tissue cAMP content measurements, mice were allowed to acclimate to the surroundings in the laboratory for an hour before sacrifice. Freshly isolated hearts were briefly immersed in liquid nitrogen. The tissue was homogenized in ice-cold 6% percholic acid, and cAMP was extracted as described before. The concentration of cAMP was determined with an RIA kit (PerkinElmer Life Sciences, Boston, Mass., USA).
Hearts were dissected from the mice, and membrane preparations were prepared as described previously. Protein concentration was measured by the Bradford method using bovine serum albumin as a standard. AC activity was measured as described previously. AC activity was linear within the incubation time up to 30 min. For the study of Ca 2+ inhibition, the membranes were treated first with EGTA to extract the endogenous Ca 2+ prior to the assay. Free Ca 2+ concentrations were obtained with the use of 200 μmol/L EGTA buffers as described previously. The experiments with Ca 2+ inhibition were conducted in the presence of 100 μmol/L isoproterenol (ISO)+100 μmol/L GTP.

Experiment [3] deals with T1, AC5. The experiment is described as follows: Adenyl cyclase stimulation by forskolin derivatives, High five cell membranes overexpressing type V. The format is biochemical. As to conditions: forskolin derivatives. Details: made in house; host or cells: High Five insect cells (membranes). How it is done:
FIG. 15: Effect of forskolin, 6[3-(dimethylamino)propionyl]-14,15-dihydroforskolin, and NKH477 on adenyl cyclase [isforms.] isoforms: Forskolin derivatives dose response effect (A-C). High five cell membranes overexpressing type II (A), type III (B), and type V (C) adenyl cyclases. Adenyl cyclase activity was measured in the presence of 5 mM of MgCl2 with various concentrations of forskolin (closed circles), 6[3-(dimethylamino)propionyl]-14,15-dihydroforskolin (D, open triangles) or NKH477 (open circles). Means±SEM from 4 independent experiments are shown. *, p<0.01 differences from the value with forskolin.

T1 sequence (P30803 whole entry, canonical isoform): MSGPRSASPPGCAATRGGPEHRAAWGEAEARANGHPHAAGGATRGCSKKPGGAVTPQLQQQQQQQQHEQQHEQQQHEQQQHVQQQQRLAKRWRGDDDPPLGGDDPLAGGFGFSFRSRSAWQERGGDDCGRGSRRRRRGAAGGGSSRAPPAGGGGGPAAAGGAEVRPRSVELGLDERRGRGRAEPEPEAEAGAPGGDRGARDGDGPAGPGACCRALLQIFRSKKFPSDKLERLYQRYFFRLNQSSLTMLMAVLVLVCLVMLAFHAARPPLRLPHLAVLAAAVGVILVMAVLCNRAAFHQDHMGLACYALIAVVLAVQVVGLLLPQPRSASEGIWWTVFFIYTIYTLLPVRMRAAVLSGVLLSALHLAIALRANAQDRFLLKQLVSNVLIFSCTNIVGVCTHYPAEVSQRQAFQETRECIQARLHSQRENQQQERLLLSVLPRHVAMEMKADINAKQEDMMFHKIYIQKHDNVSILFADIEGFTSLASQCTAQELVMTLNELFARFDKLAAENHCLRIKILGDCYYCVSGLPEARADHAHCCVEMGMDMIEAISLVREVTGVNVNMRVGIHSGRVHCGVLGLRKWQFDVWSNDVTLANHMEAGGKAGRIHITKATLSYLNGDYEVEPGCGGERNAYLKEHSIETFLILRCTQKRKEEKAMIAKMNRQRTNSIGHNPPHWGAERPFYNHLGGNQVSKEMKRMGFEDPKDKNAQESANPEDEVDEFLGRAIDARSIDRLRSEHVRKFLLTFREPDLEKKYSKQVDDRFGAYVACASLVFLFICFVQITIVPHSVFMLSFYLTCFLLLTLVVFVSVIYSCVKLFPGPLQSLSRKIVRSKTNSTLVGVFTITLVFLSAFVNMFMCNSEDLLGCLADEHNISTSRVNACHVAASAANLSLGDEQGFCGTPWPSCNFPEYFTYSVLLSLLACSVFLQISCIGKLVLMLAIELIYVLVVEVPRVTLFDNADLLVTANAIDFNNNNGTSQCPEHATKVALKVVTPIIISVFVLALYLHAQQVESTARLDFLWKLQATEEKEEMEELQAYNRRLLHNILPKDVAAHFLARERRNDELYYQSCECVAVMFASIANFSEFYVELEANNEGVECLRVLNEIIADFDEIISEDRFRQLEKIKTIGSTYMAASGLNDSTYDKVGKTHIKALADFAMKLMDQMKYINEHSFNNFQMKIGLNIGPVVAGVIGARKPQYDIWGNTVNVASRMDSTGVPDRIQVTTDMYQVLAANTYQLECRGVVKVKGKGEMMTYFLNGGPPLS

For `COc1ccc(CCN(C)CCCC(C#N)(c2ccc(OC)c(OC)c2)C(C)C)cc1OC` (stereo not drawn) [verapamil], the “change of HR” value in experiment [1] (conscious AC5KO) is −33±10 beats/min; in experiment [1] (conscious WT), −36±10 beats/min.

Regarding `CN1[C@@H]2CC[C@H]1C[C@@H](OC(=O)C(CO)c1ccccc1)C2` (stereo partly drawn) [atropine], the “increase in HR” value is 19±7.5 beats/min in experiment [1] (conscious AC5KO) and 102±22.2 beats/min in experiment [1] (conscious WT). In addition, in experiment [1] (conscious AC5KO, 1 mg/kg i.v. (Example 3)), the “increase in HR (in words)” value is given as “not observed in AC5KO”.

For the molecule `Nc1ncnc2c1ncn2[C@H]1C[C@H](OP(=O)(O)O)[C@@H](CO)O1` [2′-d-3′-AMP], the IC50 on AC5 [2] stood at 0.82 µM.

As for `CC(=O)OCC[N+](C)(C)C` [ACh, acetylcholine], the “decrease of HR” value in experiment [1] (conscious AC5KO, 0.01 μg/g i.v. (Example 2)) is listed as 7.5%; in experiment [1] (conscious AC5KO, 0.01 mg/kg i.v. (Example 3)) it was 1.3%; in experiment [1] (conscious WT, 0.01 μg/g i.v. (Example 2)) it was 22%; in experiment [1] (conscious WT, 0.01 mg/kg i.v. (Example 3)), 15%.

For `Nc1ncnc2c1ncn2C1CCCC1` [CPA, 9-(cyclopentyl)adenine], the “inhibition of AC3 (in words)” value on AC3 was “only to a modest degree”. Also, the “inhibition of AC5 (in words)” value on AC5 [2] (in the presence of Gsalpha/GTPgammaS/forskolin) is given as “potently inhibited AC5”. Besides, the “inhibition of AC2 (in words)” value at AC2 was “only to a modest degree”.

With `C[N+](C)(C)CCOC(N)=O` [Carbachol], the “decrease of ISO-stimulated AC activity (in words)” value in the experiment with cardiac AC (AC5KO heart membranes) is on record as “did not inhibit; also recorded: hardly detectable”. In addition, in the experiment on cardiac AC (WT heart membranes, ISO 100 μM + GTP 100 μM), the “decrease of ISO-stimulated AC activity” value was 21±3.4% and 21±3%.

Turning to `CC[C@@]1(C)CC(=O)[C@@]2(O)[C@]3(C)[C@H](O)CCC(C)(C)[C@H]3[C@@H](O)[C@@H](OC(C)=O)[C@]2(C)O1` [14,15-Dihydroforskolin], the “AC5 selectivity of stimulation (in words)” value on AC5 [3] is recorded as “small enhancement in AC5 selectivity”.

As to `Nc1ncnc2c1ncn2[C@@H]1O[C@H](CO)[C@@H](OP(=O)(O)O)[C@H]1O` [3′-AMP], the IC50 at AC5 [2] came to 14.6 µM.

For the molecule `CNC[C@H](O)c1cccc(O)c1` [Phenylephrine, phenylephrine], the “systolic arterial pressure (in words)” value in experiment [1] (WT and AC5KO, 0.2 μg/g (0.2 mg/kg) i.v.) was “increased systolic arterial pressure significantly in both WT and AC5KO; also recorded: increased systolic arterial pressure similarly in both WT and AC5KO”.
